Holding throughout (type): physicochemical
Data set [1] can be described thus: UV spectrophotometer lambda max in diethylene glycol dimethyl ether solution. The following applies: for lambda max compared with compound samples A, B and D (in words): Table 1 values vs. samples A, B and D of Table 2; for LAMBDA MAX: in diethylene glycol dimethyl ether, approximately 0.5 milligrams per milliliter. The method, then: The principal products of Examples 1, 2 and 3 were dissolved in diethylene glycol dimethyl ether. The concentrations of the resulting solutions were approximately 0.5 milligrams per milliliter. Each solution was tested in a UV spectrophotometer to determine its lambda max. The lambda max reported in Table 1 is the wavelength in the ultraviolet range closest to the visible spectrum or in the threshold range, i.e., 390 to 410 nanometers, of the visible spectrum, at which the maximum absorption and activation of the photochromic compound occurs in diethylene glycol dimethyl ether.

Data set [2] is described as follows: Colour change of diethylene glycol dimethyl ether solution on ultraviolet irradiation.
Data set [3] can be described thus: Bleach rate of imbibed polymer test squares. The following applies: for BLEACH RATE T 1/2: 25.7±0.5° C., after removal of activating light. The method, then: (§1) These compounds were imbibed by thermal transfer into test squares of a polymeric matrix prepared from a diethylene glycol bis(allyl carbonate) composition by the following procedure: Each photochromic compound was dissolved in toluene to form a 4 weight percent solution of the compound. A piece of No. 4 Whatman filter paper was saturated with the toluene solution of the photochromic compound and allowed to air dry. The dried filter paper was placed on one side of the polymer test square, which measured 1/8 inch (0.3 centimeter)×2 inch (5.1 centimeters)×2 inch (5.1 centimeters). A piece of untreated filter paper was placed on the other side of the polymer test square and the resulting sandwich placed between two plates of flat aluminum metal plates. […] The imbibed test squares were washed with acetone after removal from the oven.
(§2) The imbibed polymer test squares were tested for photochromic response rates on an optical bench. The samples were illuminated by a 150 watt Xenon lamp fitted with a copper sulfate bath and a neutral density filter at an intensity of about one sun. A second beam of light provided by a filtered tungsten lamp arranged to pass through the sample area exposed by the UV source was used to monitor changes in transmission of the sample over different wavelength ranges in the visible region of the spectrum. The intensity of the monitoring beam after passing through the sample was measured by means of an IL-1500 radiometer equipped with a silicon detector head and matching filters.

Data set [4] in a line: Photochromic response (sensitivity, saturation optical density) of imbibed polymer test squares on optical bench. To be noted: for Δ OD @ SATURATION: UV exposure continued for 20 minutes; for Δ OD/min. SENSITIVITY: first five (5) seconds of UV exposure, expressed per minute, photopic filters, about one sun. The method, then:
as §1, §2
(§3) The Δ OD/min., which represents the sensitivity of the photochromic compound's response to UV light, was measured using photopic filters on the silicon detector. The response of the filtered detector approximated the luminosity curve. The Δ OD was measured over the first five (5) seconds of UV exposure, then expressed on a per minute basis. The saturation optical density (OD) was taken under identical conditions as the Δ OD/min., except UV exposure was continued for 20 minutes. The lambda max reported in Table 2 is the wavelength in the ultraviolet range closest to the visible spectrum or in the threshold range, i.e., 390 to 410 nanometers, of the visible spectrum at which the maximum absorption and activation of the photochromic compound occurs in the polymer matrix test squares.

A short description of data set [5]: Lambda max in imbibed polymer matrix test squares. To be noted: for LAMBDA MAX: in polymer matrix test squares of diethylene glycol bis(allyl carbonate). The method, then:
as §1, §3

Take “1,3,3,4,5(or 1,3,3,5,6,)-pentamethyl-9'-methoxy-carbonyl-8'-acetoxy-spiro[indoline-2,3'-[3H]naphth[2,1-b][1,4]oxazine] [Example 3]”: in data set [1], the “lambda max compared with compound samples A, B and D (in words)” value was “relatively high lambda max values”; the “LAMBDA MAX” value amounted to 374. Besides, in data set [2], the “colour of solution after the ultraviolet light was removed” value is listed as “returned to its original colorless condition”, the “colour of solution before irradiation” value is “colorless” and the “colour of solution when irradiated with ultraviolet light” value is “changed to blue”.
Consider “1,3,3,4,5(or 1,3,3,5,6,)-pentamethyl-9'-methoxycarbonyl-8'-hydroxy-spiro[indoline-2,3'-[3H]naphth[2,1-b][1,41oxazine] [Example 1]”, for which, in data set [1], the “lambda max compared with compound samples A, B and D (in words)” value was “relatively high lambda max values”; the “LAMBDA MAX” value is 403. Besides, in data set [2], the “colour of solution after the ultraviolet light was removed” value is “returned to its original slightly colored condition”, the “colour of solution before irradiation” value is recorded as “slight yellow cast” and the “colour of solution when irradiated with ultraviolet light” value is recorded as “changed to green”.
The matching figures for “1,3,3,4,5(or 1,3,3,5,6,)-pentamethyl-9'-methoxycarbonyl-8'-methoxy-spiro[indoline-2,3'-[3H]naphth[2,1-b][1,41oxazine] [Example 2]”: “relatively high lambda max values”, 383, “returned to its original colorless condition”, “colorless” and “changed to blue”.
For the compound “1-propyl-3,3,4,5(or 3,3,5,6)-tetramethyl-9'-methoxycarbonyl-8'-acetoxy-spiro[indoline-2,3'-[3H]naphth[2,1-b][1,4]oxazine] [Compound C]”, the “BLEACH RATE T 1/2” value in data set [3] is 2.27 min. Also, the “bleach rate (in words)” value in data set [3] (polymer test squares) is “acceptable bleach rate”. Also, in data set [4], the “Δ OD @ SATURATION” value was 0.42 Δ OD and the “Δ OD/min. SENSITIVITY” value is given as 0.46 Δ OD/min. In data set [4] (polymer test squares), the “optical density at saturation compared with the other compounds (in words)” value is “higher optical density at saturation” and the “sensitivity compared with the other compounds (in words)” value is “improved sensitivity”. Also, the “LAMBDA MAX” value in data set [5] worked out at 374. In addition, the “absorption maxima in the UV spectrum compared with compounds A, B and D (in words)” value in data set [5] (polymer test squares) is “unexpectedly higher than compounds A, B and D”.
In the case of “1propyl-3,3,4,5(or 3,3,5,6)tetramethyl-spiro[indoline2,3[3H]naphth[2,1b][1,4]oxazine]”, the “BLEACH RATE T 1/2” value in data set [3] worked out at 0.783 min. In data set [4], the “Δ OD @ SATURATION” value is listed as 0.11 Δ OD and the “Δ OD/min. SENSITIVITY” value is listed as 0.21 Δ OD/min. For the same compound, in data set [5], the “LAMBDA MAX” value was found to be 346.
As to `CCCN1c2cc(C)c(C)cc2C(C)(C)C12C=Nc1c(ccc3ccc(OC)cc13)O2` (centres unmarked) [A, 1propyl-3,3,5,6-tetramethyl-9methoxy-spiro[indoline2,3[3H]naphth[2,1b][1,]oxazine]], the “BLEACH RATE T 1/2” value in data set [3] was found to be 1.17 min. Further, in data set [4], the “Δ OD @ SATURATION” value is listed as 0.11 Δ OD and the “Δ OD/min. SENSITIVITY” value is given as 0.15 Δ OD/min. The “LAMBDA MAX” value in data set [5] came out at 336.
As for `CCCN1c2cc(C)c(C)cc2C(C)(C)C12C=Nc1c(ccc3ncccc13)O2` (centres unmarked) [B, 1propyl-3,3,5,6-tetramethyl-spiro[indoline2,3[3H]pyrido[3,2f][1,4]benzoxaine]], the “BLEACH RATE T 1/2” value in data set [3] was 1.15 min. For the same compound, in data set [4], the “Δ OD @ SATURATION” value is 0.36 Δ OD and the “Δ OD/min. SENSITIVITY” value is 0.44 Δ OD/min. Also, the “LAMBDA MAX” value in data set [5] was determined as 350.

These data come from patent US5405958A, “Photochromic spiro(indoline)naphthoxazine compounds” (Transitions Optical, Inc., priority 1992, dated 1995).
